Source: the supplement of paper PMC10307832

Key:
Test in all cases: relative viability (nuclei count vs DMSO), 5 days (fraction); higher = more cells survive
[1] = compound: O=C(Nc1c[nH]nc1-c1nc2ccc(CN3CCOCC3)cc2[nH]1)NC1CC1 [AT9283] + C[C@@H](Oc1cc(-c2cnn(C3CCNCC3)c2)cnc1N)c1c(Cl)ccc(F)c1Cl [Crizotinib] (partner 1 µM)
Procedure, shortened: (§1)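 Relative viability equals treated-well nuclei counts divided by vehicle-well nuclei counts. Counts came from 4× images of lung cancer cell lines grown in 1536-well plates for 5 days after pin-tool dosing on the day after seeding. Dosing used one drug alone or a fixed anchor-drug dose plus five library-drug doses (not always all listed) in √10 steps, and values are medians of duplicate plates.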

[2] = compound: C#Cc1cccc(Nc2ncnc3cc(OCCOC)c(OCCOC)cc23)c1 [Erlotinib] + COc1cccc2cc(-c3nc([C@H]4CC[C@H](C(=O)O)CC4)n4ncnc(N)c34)[nH]c12 [OSI-027] (partner 0.5 µM)
Procedure, shortened: as §1

[3] = compound: O=C(Nc1c[nH]nc1-c1nc2ccc(CN3CCOCC3)cc2[nH]1)NC1CC1 [AT9283] + Nc1ncn([C@H]2C[C@H](O)[C@@H](CO)O2)c(=O)n1 [Decitabine] (partner 2 µM)
Procedure, shortened: as §1

[4] = compound: O=C(Nc1c[nH]nc1-c1nc2ccc(CN3CCOCC3)cc2[nH]1)NC1CC1 [AT9283] + NC(=O)Nc1cc(-c2cccc(F)c2)sc1C(=O)N[C@H]1CCCNC1 [AZD7762] (partner 0.2 µM)
Procedure, shortened: as §1

[5] = compound: C#Cc1cccc(Nc2ncnc3cc(OCCOC)c(OCCOC)cc23)c1 [Erlotinib] + CC1(C)CCC(c2ccc(Cl)cc2)=C(CN2CCN(c3ccc(C(=O)NS(=O)(=O)c4ccc(N[C@H](CCN5CCOCC5)CSc5ccccc5)c(S(=O)(=O)C(F)(F)F)c4)cc3)CC2)C1 [Navitoclax] (partner 0.5 µM)
Procedure, shortened: as §1

| Cell Line | relative viability ([1]; first compound 0.003 µM) | relative viability ([1]; first compound 0.03 µM) | relative viability ([1]; first compound 0.09487 µM) | relative viability ([1]; first compound 0.3 µM) | relative viability ([2]; first compound 0.02 µM) | relative viability ([2]; first compound 0.2 µM) | relative viability ([2]; first compound 0.6325 µM) | relative viability ([2]; first compound 2 µM) | relative viability ([3]; first compound 0.003 µM) | relative viability ([3]; first compound 0.03 µM) | relative viability ([3]; first compound 0.09487 µM) | relative viability ([3]; first compound 0.3 µM) | relative viability ([4]; first compound 0.003 µM) | relative viability ([4]; first compound 0.03 µM) | relative viability ([4]; first compound 0.09487 µM) | relative viability ([4]; first compound 0.3 µM) | relative viability ([5]; first compound 0.02 µM) | relative viability ([5]; first compound 0.2 µM) | relative viability ([5]; first compound 0.6325 µM) | relative viability ([5]; first compound 2 µM) |
| --- | --- | --- | --- | --- | --- | --- | --- | --- | --- | --- | --- | --- | --- | --- | --- | --- | --- | --- | --- | --- |
| NCI-H1915 | 0.842 | 0.826 | 0.226 | 0.255 | 0.651 | 0.713 | 0.679 | 0.55 | 0.247 | 0.26 | 0.209 | 0.168 | 0.617 | 0.548 | 0.334 | 0.222 | 0.865 | 0.807 | 0.841 | 0.745 |
| NCI-H1944 | 0.9 | 0.648 | 0.257 | 0.294 | 0.413 | 0.355 | 0.291 | 0.269 | 0.415 | 0.388 | 0.212 | 0.267 | 0.594 | 0.246 | 0.184 | 0.125 | 0.989 | 0.912 | 0.941 | 0.796 |
| NCI-H1355 | 1.03 | 0.992 | 0.529 | 0.199 | 0.382 | 0.387 | 0.325 | 0.296 | 0.341 | 0.357 | 0.322 | 0.195 | 0.9 | 0.568 | 0.602 | 0.23 | 1.02 | 0.9 | 0.812 | 0.675 |
| HCC-827 | 0.91 | 0.808 | 0.41 | 0.283 | 0.411 | 0.15 | 0.112 | 0.126 | 0.235 | 0.234 | 0.258 | 0.214 | 0.234 | 0.169 | 0.145 | 0.153 | 0.465 | 0.167 | 0.162 | 0.172 |
| RERF-LC-KJ | 0.788 | 0.526 | 0.293 | 0.23 | 0.528 | 0.417 | 0.394 | 0.337 | 0.746 | 0.477 | 0.282 | 0.224 | 0.836 | 0.578 | 0.387 | 0.243 | 0.861 | 0.663 | 0.583 | 0.771 |
| LK-2 | 0.255 | 0.218 | 0.241 | 0.251 | 0.202 | 0.211 | 0.21 | 0.192 | 0.215 | 0.116 | 0.113 | 0.0972 | 0.344 | 0.109 | 0.0946 | 0.0986 | 0.941 | 0.621 | 1.04 | 0.725 |
| HOP-62 | 1.13 | 0.747 | 0.285 | 0.167 | 0.917 | 0.848 | 1.04 | 0.754 | 0.212 | 0.217 | 0.152 | 0.165 | 0.561 | 0.143 | 0.161 | 0.199 | 1.08 |  | 1.19 | 1.05 |
| PC-14 | 0.959 | 0.731 | 0.559 | 0.159 | 0.43 | 0.0949 | 0.136 | 0.0777 | 0.199 | 0.157 | 0.0721 | 0.0727 | 0.341 | 0.371 | 0.206 | 0.0832 | 0.935 |  | 0.391 | 0.31 |
